Data on 11 compounds can be found in article PMC9645637 (PLOS ONE, 2022).

Molecules are shown by their SMILES. Read-outs that look alike come from different tables or passages of the source.

The target in data set [1] is T1, An. gambiae AChE (Anopheles gambiae, UniProt Q869C3).
T1 construct: Mosquitoes from the four Anopheles colonies were separately homogenized in Na2HPO4, 1% Triton X-100 (pH 8.0) and used as an enzyme source; from tissue; host or cells: whole mosquito homogenate (An. gambiae colony)
Put plainly: AChE assay (modified Ellman assay), mosquito homogenate. The class given is biochemical. On the procedure: (§1) Mosquitoes from the four Anopheles colonies were separately homogenized in Na2HPO4, 1% Triton X-100 (pH 8.0) and used as an enzyme source. Protein content was assessed using the standard Lowry protein assay. The incubation mixture in a 96-well plate consisted of 20 μl of the enzyme in 132 μL of the assay buffer (Na2HPO4, 1% Triton X-100; pH 8.0). […] Ellman’s reagent, 5,5′-dithiobis(2-nitrobenzoic acid) (DTNB), was freshly prepared in sodium phosphate buffer (dibasic; pH 7.0) and 8 μL (0.2 mM) added to the incubation mixture. To initiate the reaction, 20 μL (1 mM) of the AChE substrate, acetylthiocholine iodide was added making a total volume of 200 μL in each well and the absorbance readings were obtained using the UV-Visible spectrophotometer at 412 nm. Propoxur was kept as a positive control on the basis of having both AChE and larvicidal activities, while DMSO was used as a negative control. […] However, the insecticide propoxur was also assessed against this target to determine AChE selectivity between electric eel and Anopheles and subsequent comparison with the test compounds.
(§2) All in vitro and in vivo assays were performed in triplicate.
For orientation: DTNB colorimetry detects thiols as they appear.

Data set [2] deals with An. funestus AChE. The description is as above. The class given is biochemical. Particulars: read-out: Anopheles AChE inhibition IC50 ± SE (95% confidence interval range). On the procedure: as §1, §2
The target in data set [3] is An. arabiensis AChE (Anopheles gambiae, UniProt Q869C3). The description is as above. The class given is biochemical. As to the method:
as §1, §2

The target of data set [4] is electric eel AChE (Electrophorus electricus, UniProt O42275). Put plainly: AChE assay (modified Ellman assay), electric eel AChE. The class given is biochemical. On the procedure:
as §1, §2

Data set [5] concerns An. arabiensis (KWAG) larvae. Put plainly: Larvicidal assay (WHO bioassay for mosquito larvicides). As to conditions: for LC50: Anopheles arabiensis, read-out: Larvicidal LC50 (95% confidence interval range).
Text: (§3) The laboratory-reared colonies of An. funestus (FUMOZ), An. arabiensis (KWAG), An. gambiae (COGS) and An. coluzzii (G3) were used for larvicidal and AChE screening assays. These are common Anopheles species responsible for malaria transmission in Africa. These colonies were maintained under standard insectary conditions as reported by Hunt et al. and Zengenene et al.. FUMOZ was first collected from Mozambique in 2000 and has a low-level intensity of pyrethroid and carbamate resistance. KWAG was collected from KwaZulu-Natal (South Africa) in 2005 and has shown resistance to pyrethroids and the organochloride, dichloro-diphenyl-trichloroethane (DDT).
(§4) The incubation mixture was performed in a total volume of 250 mL of deionized water under 27°C and humidity ≥78%. The test compounds were dissolved in DMSO and assessed for larvicidal activity at 10 times increasing concentrations from 0.0005 μM to 500 μM. Propoxur, a standard larvicide and an AChE agent, was used as a positive control, while DMSO was employed for the negative vehicle control. Larval mortality was recorded in 24, 48 and 72 hours and larvae were fed with protein dog food at day 0 and after every mortality counting.
as §2

Data set [6] has as its system An. coluzzii (G3) larvae. Described as above. As to conditions: read-out: Larvicidal LC50 (95% confidence interval range); An. coluzzii (G3) third-instar larvae.
Text: as §3, §4, §2

Data set [7] relates to An. gambiae (COGS) larvae. Described as above. As to conditions: Anopheles gambiae, read-out: Larvicidal LC50 (95% confidence interval range).
Text: as §3, §4, §2

Data set [8] relates to An. funestus (FUMOZ) larvae. Described as above. As to conditions: read-out: Larvicidal LC50 (95% confidence interval range); An. funestus (FUMOZ) third-instar larvae.
Text: as §3, §4, §2

For data set [9], the system named is Artemia franciscana. Particulars: read-out: Brine shrimp LC50 (95% confidence interval); Artemia franciscana nauplii, 24 h. As to the method: as §2
The mark [10] stands for this setting: An. gambiae homogenate, read-out: Anopheles AChE inhibition IC50 ± SE (95% confidence interval range).
Setting [11] is: An. arabiensis homogenate, read-out: Anopheles AChE inhibition IC50 ± SE (95% confidence interval range).
Where [12] appears, read: read-out: Electric eel AChE inhibition IC50 ± SE (95% confidence interval range).

T1 sequence (Q869C3 39-737): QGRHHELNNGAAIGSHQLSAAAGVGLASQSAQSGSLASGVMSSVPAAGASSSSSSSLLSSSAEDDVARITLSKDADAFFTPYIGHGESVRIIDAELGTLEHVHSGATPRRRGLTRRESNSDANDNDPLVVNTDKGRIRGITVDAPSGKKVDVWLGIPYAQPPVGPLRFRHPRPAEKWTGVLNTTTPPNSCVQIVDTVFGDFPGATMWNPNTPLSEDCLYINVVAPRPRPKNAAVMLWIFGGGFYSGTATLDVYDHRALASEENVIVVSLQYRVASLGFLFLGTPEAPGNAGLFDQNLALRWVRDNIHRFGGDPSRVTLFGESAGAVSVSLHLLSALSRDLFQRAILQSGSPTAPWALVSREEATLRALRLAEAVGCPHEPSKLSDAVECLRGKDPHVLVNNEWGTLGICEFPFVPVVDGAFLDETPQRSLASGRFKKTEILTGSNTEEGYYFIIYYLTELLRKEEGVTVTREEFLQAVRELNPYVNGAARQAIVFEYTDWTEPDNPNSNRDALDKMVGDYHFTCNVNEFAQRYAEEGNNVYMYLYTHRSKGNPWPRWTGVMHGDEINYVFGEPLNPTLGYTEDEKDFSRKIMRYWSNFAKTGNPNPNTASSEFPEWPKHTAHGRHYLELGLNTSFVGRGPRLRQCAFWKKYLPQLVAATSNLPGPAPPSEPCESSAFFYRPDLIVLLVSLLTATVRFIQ
Sequence of electric eel AChE (O42275 24-633): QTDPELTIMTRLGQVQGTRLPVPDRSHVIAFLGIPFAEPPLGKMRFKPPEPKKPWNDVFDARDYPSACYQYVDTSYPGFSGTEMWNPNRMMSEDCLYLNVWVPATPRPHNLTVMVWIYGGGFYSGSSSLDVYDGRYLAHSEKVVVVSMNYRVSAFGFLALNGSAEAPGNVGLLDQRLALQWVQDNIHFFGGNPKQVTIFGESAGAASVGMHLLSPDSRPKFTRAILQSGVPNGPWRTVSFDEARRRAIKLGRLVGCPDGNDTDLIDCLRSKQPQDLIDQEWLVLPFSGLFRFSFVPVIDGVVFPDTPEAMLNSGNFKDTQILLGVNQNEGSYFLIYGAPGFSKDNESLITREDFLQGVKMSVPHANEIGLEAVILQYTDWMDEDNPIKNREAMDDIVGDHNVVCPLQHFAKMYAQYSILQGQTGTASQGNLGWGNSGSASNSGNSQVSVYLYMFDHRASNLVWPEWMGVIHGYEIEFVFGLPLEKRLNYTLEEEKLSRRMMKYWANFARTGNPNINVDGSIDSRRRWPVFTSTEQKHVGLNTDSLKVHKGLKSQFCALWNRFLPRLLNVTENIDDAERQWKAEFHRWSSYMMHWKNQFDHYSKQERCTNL
Sequence of An. arabiensis AChE (Q869C3 162-698 limits assumed): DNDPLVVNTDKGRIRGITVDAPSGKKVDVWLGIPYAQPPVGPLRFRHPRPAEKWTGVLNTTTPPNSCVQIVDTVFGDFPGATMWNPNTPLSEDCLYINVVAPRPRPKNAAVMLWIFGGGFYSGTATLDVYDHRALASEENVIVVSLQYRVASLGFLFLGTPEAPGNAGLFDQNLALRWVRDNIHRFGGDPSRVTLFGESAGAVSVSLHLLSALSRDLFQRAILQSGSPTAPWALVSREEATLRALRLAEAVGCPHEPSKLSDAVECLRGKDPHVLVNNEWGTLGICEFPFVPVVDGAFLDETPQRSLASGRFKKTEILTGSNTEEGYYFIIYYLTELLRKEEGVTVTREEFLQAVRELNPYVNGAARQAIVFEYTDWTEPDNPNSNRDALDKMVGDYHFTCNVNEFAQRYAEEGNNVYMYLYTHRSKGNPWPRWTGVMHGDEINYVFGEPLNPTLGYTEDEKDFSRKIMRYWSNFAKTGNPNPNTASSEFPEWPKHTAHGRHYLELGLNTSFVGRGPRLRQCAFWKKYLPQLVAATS

As usually defined, the IC50 is the midpoint of a concentration-inhibition curve. The term LC50 denotes the concentration that kills 50% of the test population. Turning to `O=C(NCCN1CCOCC1)C1CCN(Cc2ccccc2)CC1` [derivative 1, 1-benzyl-N-(2-morpholinoethyl) piperidine-4-carboxamide], the IC50 in [1] (setting [10]) was 48.9 ± 10.5 µM; in [2], above 100 µM; in data set [3] (setting [11]), above 100 µM; in data set [4] (setting [12]) it was above 100 µM. In addition, the LC50 was above 100 µM in data set [5], above 100 µM in [6], above 100 µM in data set [7] and 2.65 µM in data set [8].
Consider `O=C(NCCc1c[nH]cn1)C1CCN(Cc2ccccc2)CC1` [derivative 6, N-[2-(1H-imidazol-4-yl)ethyl]-1-benzylpiperidine-4-carboxamide], for which the LC50 in data set [5], in data set [6], in data set [7] and in [8] was above 100 µM throughout.
For `O=C(NCCN1CCCCC1)C1CCN(Cc2ccccc2)CC1` [derivative 8, 1-benzyl-N-(2-(piperidin-1-yl)ethyl)piperidine-4-carboxamide], the 50% inhibitory concentration (IC50) in data set [1] (setting [10]) is 28.1 ± 6.89 µM; in [2] it was above 100 µM; in [3] (setting [11]) it was above 100 µM; in data set [4] (setting [12]), 88.3 ± 19.9 µM. The LC50 in data set [5] is above 100 µM; in data set [6], above 100 µM; in [7] it was above 100 µM; in [8] it was 0.8 µM.
With `CNC(=O)Oc1ccccc1OC(C)C` [Propoxur, propoxur, reference compound], the IC50 in [1] was 26.1 ± 6.21 µM; in data set [2], 0.89 ± 0.2 µM; in data set [3] it was 0.78 ± 0.16 µM; in [4] it was 1.28 ± 0.35 µM. Further, the LC50 came out at 8.77 µM in [5], 62.7 µM in data set [6], 64 µM in data set [7] and 9.9 µM in [8].
`O=C(NC1CCCc2ccccc21)C1CCN(Cc2ccccc2)CC1` (centres unmarked) [derivative 7, 1-benzyl-N-(1,2,3,4-tetrahydro-naphthalen-1-yl) piperidine-4-carboxamide]: the LC50 in data set [5], in data set [6], in data set [7] and in [8] was above 100 µM each time.
For `[K+].[K+].[O]=[Cr](=[O])([O-])[O][Cr](=[O])(=[O])[O-]` [potassium dichromate], the LC50 in data set [9] came to 0.004 µM.
Consider `COc1cc(CCNC(=O)C2CCN(Cc3ccccc3)CC2)cc(OC)c1OC` [derivative 3, 1-benzyl-N-(3,4,5-trimethoxyphenethyl) piperidine-4-carboxamide], for which the LC50 in data set [5], in data set [6], in data set [7] and in [8] was above 100 µM throughout.
Take `O=C(NCc1cccnc1)C1CCN(Cc2ccccc2)CC1` [derivative 4, 1-benzyl-N-(pyridine-3-ylmethyl) piperidine-4-carboxamide]: the LC50 in data set [5], in data set [6], in data set [7] and in [8] was above 100 µM throughout.
`O=C(NCc1ccncc1)C1CCN(Cc2ccccc2)CC1` [derivative 9, 1-benzyl-N-(pyridine-4-ylmethyl) piperidine-4-carboxamide]: the LC50 in data set [5], in data set [6], in data set [7] and in [8] was above 100 µM throughout.
Take `O=C(NCc1ccco1)C1CCN(Cc2ccccc2)CC1` [derivative 5, 1-benzyl-N-(furan-2-ylmethyl) piperidine-4-carboxamide]: the IC50 was 31.4 ± 7.56 µM in data set [1] (setting [10]), above 100 µM in [2], above 100 µM in data set [3] (setting [11]) and above 100 µM in data set [4] (setting [12]). In addition, the LC50 in data set [5] is above 100 µM; in data set [6], above 100 µM; in data set [7], above 100 µM; in data set [8], 2.96 µM.
Regarding `O=C(Nc1nccs1)C1CCN(Cc2ccccc2)CC1` [derivative 2, 1-benzyl-N-(thiazol-2-yl) piperidine-4-carboxamide], the IC50 is above 100 µM in data set [1] (setting [10]), above 100 µM in data set [2], 6.05 ± 2.21 µM in data set [3] (setting [11]) and 55.7 ± 12 µM in [4] (setting [12]). Also, the LC50 in data set [5] is 0.88 µM; in [6], above 100 µM; in [7], above 100 µM; in data set [8], above 100 µM. The “Fold more potent than propoxur for An. arabiensis larval toxicity” value in [5] (LC50 ratio versus propoxur) is on record as “about 10 fold”.
